From US9994862B2, “Rice resistant to HPPD and ACCase inhibiting herbicides” (priority 2011, dated 2018)
Entries after “also recorded” stand apart in the source; their conditions may differ.

Experiments:
[1] = tested on: mutant line ML0831266-03093; assay: Mesotrione tolerance trials / herbicide bioassay; type: in vivo, rice
Experimental: After the initial screening of the “mutation population,” the lines with no damage were selected and tested in additional experiments using different rates of the herbicide. In particular, a rate response experiment was conducted in which two different rates of mesotrione were applied pre-emergence, plus an additional foliar application was also applied. […] Progeny of this designated ML0831266-03093 are maintained as a new line carrying resistance to mesotrione herbicide. Seeds are deposited under ATCC PTA-13620. The line (ML0831266-03093) is a source of resistance that is backcrossed into proprietary rice lines or used directly in breeding to develop new proprietary rice lines. The developed lines are a source of herbicide resistance for use in development of new hybrids that offer an alternative mode of action to control weeds in rice. Affording this opportunity to growers is of great value both in providing high yields and in extending the useful life of available weed control technologies. These herbicide resistant traits can be tracked through the simple application of herbicides to growing plants.
(§1) Selection of material inheriting mesotrione tolerance is accomplished by a simple herbicide bioassay. A high rate of mesotrione (at least 420 gm ai/ha) is applied allowing differentiation of heterozygous individuals from homozygous individuals and the tolerance level of the […] line from the inherent tolerance level in the background of some types of rice. In one example a rate of 105 gm ai/ha is applied followed three weeks later by a second application of 630 gm ai/ha. In another example a rate of 420 gm ai/ha is applied in a single application. Yet another example entails applying the herbicide at a rate of 630 gm ai/ha. Herbicide applications are done at the three to four leaf stage of seedling growth. The ideal situation is to have also planted near or within the plants to be selected a set of plants from the original mutant mesotrione tolerant donor line ML0831266-03093, (FIG. 18A) a row of plants of the wild-type of the […] line, P1003 (FIG. 18B), and a row of the line involved as the other parent in the cross (FIG. 18C). These control lines allow easy differentiation for inheritance of the tolerance provided by the ML0831266-03093 mutant line through comparison of the response in the plants to be selected with the control lines. Only plants that live and are relatively healthy will have inherited and be homozygous for the tolerance level provided by the ML0831266-03093 mutant line (FIG. 18A).
(§2) The mutant line is planted in rows or alternatively whole plots are planted and rows of the unmutated line (P1003) and other types of rice or whole plots are planted. Mesotrione is applied pre-emergence or alternatively it is applied post-emergence at the three to four leaf stage of the rice plants. Various rates of mesotrione are applied pre-emergence, pre-emergence followed by post-emergent, or post-emergent with a single or sequential application. Post-emergent applications are applied at the 3-4 leaf stage of the rice.
Seedlings of size 3 to 4 leaves are sprayed with mesotrione herbicide. In one set of 89 plants mesotrione is first applied at 105 gm ai/ha killing 23 plants. Both the mutant line control ML0831266-03093 and the unmutated line P1003 survived the herbicide application while the unmutated line R0146 was killed. […]

unmutated line P1003 = assay: Mesotrione tolerance trials / herbicide bioassay; type: in vivo, rice
Description: as §1, §2
(§3) Seedlings of size 3 to 4 leaves are sprayed with mesotrione herbicide. In one set of 89 plants mesotrione is first applied at 105 gm ai/ha killing 23 plants. Both the mutant line control ML0831266-03093 and the unmutated line P1003 survived the herbicide application while the unmutated line R0146 was killed. The surviving plants including some additional plants making a total of 95 are then sprayed with another treatment of mesotrione at a rate of 630 gm ai/ha killing or injuring 67 while 28 survived. (FIG. 23) The surviving ratio of plants to those killed or injured fits a one quarter ratio with a chi squared value of 1.03, well within the expected for a single recessive gene. Another set of F2 individuals of size 78 individuals are sprayed with a single application of mesotrione herbicide at a rate of 420 gm ai/ha resulting in 26 plants surviving also fitting in the expected one quarter ratio for a single recessive gene with a chi square value of 2.88 (Table 2).

unmutated line R0146 = assay: Mesotrione tolerance trials / herbicide bioassay; type: in vivo, rice
Description: as §1, §2, §3

common rice weeds = assay: Weed control by mesotrione in rice plots; type: in vivo; conditions: mesotrione alone; especially pre-plant or 2x the labeled rate of 210 gmai/ha
Experimental: FIG. 6A-6B is a photograph of results of trait tolerance trials; weed control by mesotrione herbicide applied pre-planting was evaluated; the plots were planted with a hybrid of the HPPD tolerant line ML0831266-03093; just before planting, the plot on the right FIG. 6B received an application of mesotrione at 210 gmai/ha; the plot on the left FIG. 6A had no herbicide applied either pre-plant or post-emergence; pictures were taken four weeks after planting showing differences in weed appearance.
Rice is tolerant to certain ACCase inhibitor herbicides, for example cyhalofop is registered for use in rice. However other ACCase herbicides kill or severely injure rice to varying degrees. […] The applied rates of both types of herbicides giving the weed control are well within the tolerance level of the respective ACCase and HPPD tolerant lines including the combined lines carrying tolerance to both HPPD and ACCase herbicides.
Further validation of the trait involved testing the mutant line ML0831266-03093 in the presence of common rice weeds. […] This level of grass weed control was completely unexpected as mesotrione is labeled for controlling broadleaf weeds in monocot crops.

[2] = one application at 105 gai/ha followed by a second application of 630 gai/ha

Question: Which tolerance to mesotrione ([1]; 420 gm ai/ha) does the source give for `CS(=O)(=O)c1ccc(C(=O)C2C(=O)CCCC2=O)c([N+](=O)[O-])c1` [mesotrione] here?
Answer: tolerant

Question: What about the “tolerance to mesotrione in the presence of common rice weeds” value ([1]; applied rates of mesotrione, FIG. 6) of the same compound?
Answer: completely tolerant

Question: What about the survival after mesotrione ([1]; higher rates) of the same compound?
Answer: survives

Question: And the survival after mesotrione ([1]; low rate 105 gm ai/ha)?
Answer: survived

Question: And the “response of the rice to mesotrione” value [1, 2]?
Answer: tolerant; also recorded: little damage

Question: What about the survival after mesotrione (unmutated line P1003; higher rates) of the same compound?
Answer: killed or severally injured

Question: What about the survival after mesotrione (unmutated line P1003; low rate 105 gm ai/ha) of the same compound?
Answer: survived

Question: What about the “response of the rice to mesotrione” value (unmutated line P1003; [2]) of the same compound?
Answer: severely injured

Question: What about the survival after mesotrione (unmutated line R0146; low rate 105 gm ai/ha) of the same compound?
Answer: killed

Question: What about the “response of the rice to mesotrione” value (unmutated line R0146; [2]) of the same compound?
Answer: completely killed

Question: And the “weed control by mesotrione” value (common rice weeds)?
Answer: well controlled; also recorded: prevalent control; also recorded: Control of common weeds in rice was also achieved
